Values of other authors as cited in patent US11103580B2, “Methods and systems for treating cell proliferation disorders” (Immunolight, LLC, priority 2007, dated 2021).
Read-outs that look alike come from different tables or passages of the source. Blank lines part the entries; values can stand above or below the compound they belong to.

What was measured:
[1] = tested on: leukocytes; details: administered orally to a patient
[2] = for Length of photosensitization: Table 3, known photosensitizers
[3] = tested on: tumors; details: in vivo
[4] = tested on: rapidly dividing tissue; details: in vivo
[5] = in excess

Compound: COc1c2occc2cc2ccc(=O)oc12 [Compound 8-MOP, 8-methoxypsoralen]
- inducing an apoptosis of leukocytes [1]: effective at inducing an apoptosis of leukocytes
- safety [1]: safe

Compound: Oc1cccc(-c2c3nc(c(-c4cccc(O)c4)c4ccc([nH]4)c(-c4cccc(O)c4)c4nc(c(-c5cccc(O)c5)c5ccc2[nH]5)CC4)C=C3)c1 [Foscan, Tetra (m-hydroxyphenyl) chlorin]
- Length of photosensitization [2]: 2 weeks
- duration of skin photosensitivity ([2]; approximately): approximately 2 weeks

Compound: Cobalt-57-cyanocobalamin
- uptake in rapidly dividing tissue [4]: increased uptake

The next lines start with results.

- duration of skin photosensitivity ([2]; clinical use): 24 to 48 h
Compound: CC(=O)[O-].CC(=O)[O-].CCc1c(CC)c2cc3nc(cnc4cc(OCCOCCOCCOC)c(OCCOCCOCCOC)cc4ncc4nc(cc1[n-]2)C(CCCO)=C4C)C(C)=C3CCCO.O.[Lu+3] [Lutetium texaphryin, Motexafin lutetium]
- selectivity for tumors compared to normal tissues [3]: one of the greatest reported selectivities for tumors
- Length of photosensitization [2]: 24 to 48 h

- uptake in rapidly dividing tissue [4]: increased uptake
Compound: C/C1=C2/[N-][C@H]([C@H](CC(N)=O)[C@@]2(C)CCC(=O)NC[C@@H](C)OP(=O)([O-])O[C@H]2[C@@H](O)[C@@H](n3cnc4cc(C)c(C)cc43)O[C@@H]2CO)[C@]2(C)N=C(/C(C)=C3N=C(/C=C4N=C1[C@@H](CCC(N)=O)C\4(C)C)[C@@H](CCC(N)=O)[C@]\3(C)CC(N)=O)[C@@H](CCC(N)=O)[C@]2(C)CC(N)=O.[CH3-].[Co+3] [methylcobalamin]

- excretion [5]: excreted by gloinerular filtration
- water solubility: water soluble
Compound: Vitamin B12
